Experimental data taken from paper PMC10709440, “High-throughput ligand profile characterization in novel cell lines expressing seven heterologous insect olfactory receptors for the detection of volatile plant biomarkers” (Scientific Reports, 2023).
Read-outs that look alike come from different tables or passages of the source.

How the values were obtained:
Drosophila OR10a = target: T1, Drosophila OR10a (Drosophila melanogaster, UniProt Q9VYZ1); assay: Calcium ion fluorescence (GCaMP6) assay, OR10a stable HEK293 cell line; type: cell-based; settings: for OR10a response (VUAA1-normalized) at 1 μM / OR10a response (VUAA1-normalized) at 10 μM / OR10a response (VUAA1-normalized) at 100 μM: OR10a cell line; for OR10a response (VUAA1-normalized) at 1 μM: VOC concentration 1 μM; for OR10a response (VUAA1-normalized) at 10 μM: VOC concentration 10 μM; for OR10a response (VUAA1-normalized) at 100 μM: VOC concentration 100 μM
T1 construct: expressed in transfected cells
T1 sequence (Q9VYZ1 1-406): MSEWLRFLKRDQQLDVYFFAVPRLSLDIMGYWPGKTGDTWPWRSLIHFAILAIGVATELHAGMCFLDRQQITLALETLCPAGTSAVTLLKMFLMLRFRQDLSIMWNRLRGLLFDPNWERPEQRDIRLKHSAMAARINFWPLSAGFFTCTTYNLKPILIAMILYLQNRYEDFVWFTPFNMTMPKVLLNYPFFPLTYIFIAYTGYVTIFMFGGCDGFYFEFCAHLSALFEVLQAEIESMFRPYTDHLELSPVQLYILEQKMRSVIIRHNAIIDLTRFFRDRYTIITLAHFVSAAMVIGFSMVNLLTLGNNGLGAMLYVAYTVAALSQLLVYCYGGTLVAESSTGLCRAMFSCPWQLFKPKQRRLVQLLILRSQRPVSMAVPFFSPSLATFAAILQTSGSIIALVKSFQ
T1 sequence (Q9VNB5 1-486 partner): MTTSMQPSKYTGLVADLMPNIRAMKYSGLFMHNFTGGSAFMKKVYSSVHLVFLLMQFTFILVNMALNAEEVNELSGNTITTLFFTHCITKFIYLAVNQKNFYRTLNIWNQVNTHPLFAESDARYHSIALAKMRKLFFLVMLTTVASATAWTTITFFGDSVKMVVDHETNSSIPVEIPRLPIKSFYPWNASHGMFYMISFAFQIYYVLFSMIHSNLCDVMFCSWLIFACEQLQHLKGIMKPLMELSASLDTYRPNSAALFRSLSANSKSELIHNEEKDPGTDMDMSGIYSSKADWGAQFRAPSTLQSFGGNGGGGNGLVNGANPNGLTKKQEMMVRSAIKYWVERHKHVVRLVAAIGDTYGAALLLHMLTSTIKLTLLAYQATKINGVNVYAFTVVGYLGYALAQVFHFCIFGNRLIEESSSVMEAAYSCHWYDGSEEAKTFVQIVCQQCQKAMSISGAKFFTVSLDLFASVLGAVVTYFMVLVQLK
Method: (§1) These VUAA1 normalized ∆F values were used to compare the different receptors and ligands.
(§2) The concentration-dependent effect of the reference ligands on their cognate cell lines was examined in more detail. Twelve different ligand concentrations were measured on each cell line in an overall 0.01 μM to 100 μM concentration range with 5 repetitions with three technical replicates each time.
(§3) Twelve thousand to 18,000 cells were plated into each well of a black wall, transparent bottom 384-well microplate (Greiner) 48 h or 72 h before the measurements and were simultaneously treated with 1 μg/mL doxycycline. […] The plate has 24 columns, thus we could record responses in up to eight different cell lines in each plate. On the day of the experiment, the growth medium was replaced with 20 µL assay buffer/well (140 mM NaCl, 5 mM KCl, 2 mM CaCl2, 1 mM MgCl2, 5 mM HEPES-Na, 20 mM glucose, pH 7.3, 340 mOsm). […] Baseline fluorescence (F0) was recorded for 5 s, after which 7 µL VOC buffer (140 mM NaCl, 5 mM KCl, 2 mM CaCl2, 1 mM MgCl2, 5 mM HEPES-Na, 31 mM glucose, 0.1% DMSO, pH 7.3, 340 mOsm) was injected into each well in one row and the fluorescence response was recorded for an additional 30 s, at a rate of one read/sec. VOC solutions (VOC buffer with 4× concentration of the final measured VOC concentration, 9 µL/well was injected) were measured on the same wells in a second round with the same protocol. Each individual concentration of a specific VOC sample was recorded in three wells for the same cell line on the same microplate. The raw data were exported in xls file format, F0 and FMAX values, and the fluorescence intensity changes (∆F) were calculated in Excel (Microsoft) (Supplementary file Data summary.xlsx) using the following equation: ΔF=FMAX-F0/F0 (see also Fig. 1C). On each plate, we recorded the response of each cell line to 50 µM VUAA1. The average of these ∆F values of each cell line were used to calculate the VUAA1-normalized values for the rest of the plate, by dividing VOC response ∆F values by the average VUAA1 response ∆F value of the corresponding OR cell line. Each VOC-OR combination was measured three times as technical replicates. […] The average of these replicates were used as one ∆F and VUAA1-normalized ∆F in the following analysis.
(§4) In the next rows we tested the reference VOCs (or other VOCs known to activate the corresponding cell lines), in order to test if all cell lines are responsive. The remaining rows were used to test VOCs with unknown effect.
(§5) The recorded FMAX, F0, ∆F, VUAA1-normalized ∆F values, as well as the OR name, the name of the tested sample, and the final concentration for each well were copied into supplementary file Data summary.xlsx, that was used to summarize all the plates recorded. Here, the averages of the measurements were calculated for each receptor-VOC-concentration combination.

Drosophila OR47a = target: T2, Drosophila OR47a (Drosophila melanogaster, UniProt P81921); assay: Calcium ion fluorescence (GCaMP6) assay, OR47a stable HEK293 cell line; type: cell-based; settings: for OR47a response (VUAA1-normalized) at 1 μM / OR47a response (VUAA1-normalized) at 10 μM / OR47a response (VUAA1-normalized) at 100 μM / Average response: OR47a cell line; for OR47a response (VUAA1-normalized) at 1 μM: VOC concentration 1 μM; for OR47a response (VUAA1-normalized) at 10 μM: VOC concentration 10 μM; for OR47a response (VUAA1-normalized) at 100 μM: VOC concentration 100 μM; for Average response: mean of biological replicates; for activation at 1 µM / activation at 10 µM / activation at 100 µM: HEK293, read-out: OR47a response (VUAA1-normalized response)
T2 construct: expressed in transfected cells
T2 sequence (P81921 1-385): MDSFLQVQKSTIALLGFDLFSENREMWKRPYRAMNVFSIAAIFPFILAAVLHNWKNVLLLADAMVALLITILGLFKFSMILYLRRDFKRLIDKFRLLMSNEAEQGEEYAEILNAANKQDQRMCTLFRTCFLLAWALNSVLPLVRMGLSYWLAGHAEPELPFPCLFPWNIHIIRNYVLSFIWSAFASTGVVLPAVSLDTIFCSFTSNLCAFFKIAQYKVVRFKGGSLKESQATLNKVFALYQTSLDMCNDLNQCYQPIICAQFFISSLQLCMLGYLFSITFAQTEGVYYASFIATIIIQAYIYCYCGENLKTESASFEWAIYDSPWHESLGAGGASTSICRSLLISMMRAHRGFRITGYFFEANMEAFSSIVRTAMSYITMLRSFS
T2 sequence (Q9VNB5 1-486 partner): T1 sequence (Q9VNB5 1-486 partner)
Method: as §1, §2, §3, §4, §5

[1] = ligand concentration 1 (unit not given), 0.05 threshold, values below shown as 0
[2] = ligand concentration 10 (unit not given), 0.05 threshold, values below shown as 0
[3] = ligand concentration 100 (unit not given), 0.05 threshold, values below shown as 0
[4] = HEK293, 1 μM VOC, 50 μM VUAA1 = 1, responses not exceeding 0.05 considered 0, read-out: OR10a Average response (VUAA1-normalized)
[5] = HEK293, 10 μM VOC, 50 μM VUAA1 = 1, responses not exceeding 0.05 considered 0, read-out: OR10a Average response (VUAA1-normalized)
[6] = HEK293, 100 μM VOC, 50 μM VUAA1 = 1, responses not exceeding 0.05 considered 0, read-out: OR10a Average response (VUAA1-normalized)
[7] = ligand concentration 1 (unit not given), threshold 0.05, below shown as 0
[8] = ligand concentration 10 (unit not given), threshold 0.05, below shown as 0
[9] = ligand concentration 100 (unit not given), threshold 0.05, below shown as 0
[10] = HEK293, read-out: OR10a response (VUAA1-normalized response), VOC concentration 1 μM
[11] = HEK293, read-out: OR10a response (VUAA1-normalized response), VOC concentration 10 μM
[12] = HEK293, read-out: OR10a response (VUAA1-normalized response), VOC concentration 100 μM

| Structure (SMILES) | OR10a response (VUAA1-normalized) at 1 μM (Drosophila OR10a) | OR10a response (VUAA1-normalized) at 10 μM (Drosophila OR10a) | OR10a response (VUAA1-normalized) at 100 μM (Drosophila OR10a) | DF norm AVERAGE OR10a (Drosophila OR10a; [1]) | DF norm AVERAGE OR10a (Drosophila OR10a; [2]) | DF norm AVERAGE OR10a (Drosophila OR10a; [3]) | OR47a response (VUAA1-normalized) at 1 μM (Drosophila OR47a) | OR47a response (VUAA1-normalized) at 10 μM (Drosophila OR47a) | OR47a response (VUAA1-normalized) at 100 μM (Drosophila OR47a) | Average response (Drosophila OR47a; odorant cc. 1 µM) | Average response (Drosophila OR47a; odorant cc. 10 µM) | Average response (Drosophila OR47a; odorant cc. 100 µM) | DF norm AVERAGE OR47a (Drosophila OR47a; [1]) | DF norm AVERAGE OR47a (Drosophila OR47a; [2]) | DF norm AVERAGE OR47a (Drosophila OR47a; [3]) | activation at 1 µM (Drosophila OR10a; [4]) [%] | activation at 10 µM (Drosophila OR10a; [5]) [%] | activation at 100 µM (Drosophila OR10a; [6]) [%] | DF norm AVERAGE OR10a (Drosophila OR10a; [7]) | DF norm AVERAGE OR10a (Drosophila OR10a; [8]) | also measured |
| --- | --- | --- | --- | --- | --- | --- | --- | --- | --- | --- | --- | --- | --- | --- | --- | --- | --- | --- | --- | --- | --- |
| C=Cc1ccccc1 [styrene] | 0.00 | 0.00 | 0.14 | 0 | 0 | 0.144 | 0.00 | 0.00 | 0.00 | 0.0246 | 0.00 | 0.0286 | 0 | 0 | 0 | – | – | – | – | – | activation at 1 µM (Drosophila OR10a; HEK293, read-out: OR10a Average response (VUAA1-normalized), 1 μM VOC, 50 μM VUAA1 = 1, responses not exceeding 0.05 considered 0): 3%; activation at 10 µM (Drosophila OR10a; HEK293, read-out: OR10a Average response (VUAA1-normalized), 10 μM VOC, 50 μM VUAA1 = 1, responses not exceeding 0.05 considered 0): 0%; activation at 100 µM (Drosophila OR10a; HEK293, read-out: OR10a Average response (VUAA1-normalized), 100 μM VOC, 50 μM VUAA1 = 1, responses not exceeding 0.05 considered 0): 14% |
| C=CC(C)(O)CCC=C(C)C (stereo not shown) [linalool] | 0.00 | 0.07 | 0.00 | – | – | – | 0.00 | 0.00 | 0.00 | 0.00 | 0.0374 | 0.00 | – | – | – | 2 | 7 | 0 | 0 | 0.06934 | DF norm AVERAGE OR10a (Drosophila OR10a; [9]): 0; DF norm AVERAGE OR47a (Drosophila OR47a; [7]): 0; DF norm AVERAGE OR47a (Drosophila OR47a; [8]): 0; DF norm AVERAGE OR47a (Drosophila OR47a; [9]): 0 |
| CCCCC(C)O (stereo not shown) [2-hexanol] | – | – | – | – | – | – | – | – | – | 0.04 | 0.00 | 0.05 | – | – | – | 2.54 | 0 | 0 | – | – | DF norm AVERAGE OR10a (Drosophila OR10a): 0; activation at 1 µM (Drosophila OR10a; [10]): 0%; activation at 10 µM (Drosophila OR10a; [11]): 0%; activation at 100 µM (Drosophila OR10a; [12]): 0%; activation at 1 µM (Drosophila OR47a): 0%; activation at 10 µM (Drosophila OR47a): 0%; activation at 100 µM (Drosophila OR47a): 5%; DF norm AVERAGE OR47a (Drosophila OR47a; concentration 1, normalized fluorescence change, values below 0.05 threshold given as 0): 0; DF norm AVERAGE OR47a (Drosophila OR47a; concentration 10, normalized fluorescence change, values below 0.05 threshold given as 0): 0; DF norm AVERAGE OR47a (Drosophila OR47a; concentration 100, normalized fluorescence change, values below 0.05 threshold given as 0): 0.05091 |
| CC1=CCC23CC1C(C)(C)C2CCC3C (stereo not drawn) [α-funebrene] | 0.00 | 0.00 | 0.00 | 0 | 0 | 0 | 0.00 | 0.00 | 0.00 | 0.00 | 0.00 | 0.00 | 0 | 0 | 0 | 0 | 0 | 2.42 | – | – | – |
| O=Cc1ccccc1 [benzaldehyde] | – | – | – | – | – | – | – | – | – | 0.03 | 0.00 | 0.00 | – | – | – | 0 | 4 | 17 | 0 | 0 | activation at 1 µM (Drosophila OR10a; [10]): 0%; activation at 10 µM (Drosophila OR10a; [11]): 0%; activation at 100 µM (Drosophila OR10a; [12]): 17%; DF norm AVERAGE OR10a (Drosophila OR10a; [9]): 0.1697; activation at 1 µM (Drosophila OR47a): 0%; activation at 10 µM (Drosophila OR47a): 0%; activation at 100 µM (Drosophila OR47a): 0%; DF norm AVERAGE OR47a (Drosophila OR47a; [7]): 0; DF norm AVERAGE OR47a (Drosophila OR47a; [8]): 0; DF norm AVERAGE OR47a (Drosophila OR47a; [9]): 0 |
